From patent US12161620B2, “Devices and methods for facilitating and controlling use of a medication” (priority 2013, dated 2024)
Like-named read-outs stand apart in the source and are kept apart here.

Columns and labels:
[1] = PubChem; cited from earlier work
[2] = cited from earlier work
[3] = pungency; cited from earlier work
[4] = Taste of denatonium saccharide solution before and after activated carbon treatment (Example 11); conditions: 90 ppm in water
Protocol: Example 11. In a lab evaluation, 90 ppm denatonium saccharide in water was prepared. To 40 mL samples were added 100 mg and […], respectively, of powdered activated carbon Ecosorb EC-947. The samples were stirred for about 2 days to equilibrate.

[5] = Taste of sucrose octaacetate solution before and after lime treatment (Example 10); conditions: 60 ppm in water
[6] = taste detection; cited from earlier work
[7] = in vivo; cited from earlier work
[8] = cited from earlier work; remark: listed apart in the source

What does the source list for `O=C(/C=C/C=C/c1ccc2c(c1)OCO2)N1CCCCC1` [Piperine, piperine]?
LogP [1]: 3.5; solubility in alcohol [2]: soluble in alcohol; water solubility [2]: 40 ppm; threshold of effect [3]: about 1.35 ppm

For `CCN(Cc1cccc(S(=O)(=O)O)c1)c1ccc(C(=C2C=CC(=[N+](CC)Cc3cccc(S(=O)(=O)O)c3)C=C2)c2ccccc2S(=O)(=O)[O-])cc1` [Brilliant Blue], which “solubility in water” value [2] is on record?
The value was “water-soluble”.

With `CC[N+](CC)(CC(=O)Nc1c(C)cccc1C)Cc1ccccc1.O=C1[N-]S(=O)(=O)c2ccccc21` [denatonium saccharide] as the molecule, how does the “taste of untreated sample” value [4] read?
Its value is “intensely bitter”.

And the “duration of taste after administration” value ([4]; untreated, about 0.1 mL on the tongue)?
Its value is “at least two hours”.

What does the source list for `CC(=O)OC[C@H]1O[C@@](COC(C)=O)(O[C@H]2O[C@H](COC(C)=O)[C@@H](OC(C)=O)[C@H](OC(C)=O)[C@H]2OC(C)=O)[C@@H](OC(C)=O)[C@@H]1OC(C)=O` [sucrose octaacetate]?
LogP [1]: −0.9; solubility in alcohol [2]: very soluble in alcohols; water solubility [2]: 900 ppm; water solubility ([2]; listed as Sucrose octaacetate): about 900 ppm; taste of untreated solution [5]: intensely bitter; level at which detectable [6]: 10 ppm; dose that is not lethal [7]: 5000 mg/kg

Which “level at which detectable” value [6] does the source give for `CC[N+](CC)(CC(=O)Nc1c(C)cccc1C)Cc1ccccc1` [denatonium] here?
The value was 0.01 ppm.

With `COc1cc(CNC(=O)CCCC/C=C/C(C)C)ccc1O` [Capsaicin, capsaicin] as the molecule, how does the LogP [1] read?
Its LogP is 3.6.

What about the “solubility in alcohol” value [2] of the same molecule?
Its value is “soluble in alcohol”.

And the water solubility [2]?
Its water solubility is ~10 ppm.

And the threshold of effect [3]?
The threshold of effect was “about 0.02 ppm”.

What does the source list for `CC(=O)OCC(COC(C)=O)OC(C)=O` [Triacetin, triacetin]?
half-life ([8]; pH 9): < 24 h; pH around which stable ([8]; stable only around this pH): ~4

For `CN(C)c1ccc(C(=C2C=CC(=[N+](C)C)C=C2)c2ccc(N(C)C)cc2)cc1.[Cl-]` [Gentian Violet], which “solubility in water” value [2] is on record?
Its value is “soluble in water”.
